Experiments:
CDK9 = target: T1, CDK9 (Homo sapiens, UniProt P50750); assay: CDK protein degradation activity (Western blotting), CDK9; assay type: cell-based; settings: MDA-MB-231 cells, 16 hours, Western blot
T1 construct: endogenous in cells; host or cells: MDA-MB-231
Procedure, shortened: (§1)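 Degradation is judged from CDK2 and CDK9 band intensity relative to tubulin and DMSO-treated cells, after 16 h exposure of MDA-MB-231 cells to three compound concentrations (100 nM, 1 μM, 10 μM).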

CDK2 = target: T2, CDK2 (Homo sapiens, UniProt P24941); assay: CDK protein degradation activity (Western blotting), CDK2; assay type: cell-based; settings: MDA-MB-231 cells, 16 hours, Western blot
T2 construct: endogenous in cells; host or cells: MDA-MB-231
Procedure, shortened: as §1

T1 sequence (P50750 whole entry): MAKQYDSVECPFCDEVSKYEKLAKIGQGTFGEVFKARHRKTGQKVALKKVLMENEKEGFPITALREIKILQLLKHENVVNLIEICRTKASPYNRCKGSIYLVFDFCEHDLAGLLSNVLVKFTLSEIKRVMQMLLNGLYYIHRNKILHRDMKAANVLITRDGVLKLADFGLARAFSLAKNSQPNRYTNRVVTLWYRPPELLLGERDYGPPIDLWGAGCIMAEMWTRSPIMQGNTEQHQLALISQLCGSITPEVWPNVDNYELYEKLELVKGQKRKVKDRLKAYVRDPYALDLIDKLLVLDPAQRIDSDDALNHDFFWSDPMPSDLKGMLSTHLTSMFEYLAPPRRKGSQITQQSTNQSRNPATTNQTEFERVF

In the case of `O=C1CC[C@H](N2C(=O)c3cc(F)c(N4CCC(CN5CCC(CCNc6ncnc7c6ncn7[C@H]6C[C@@H](NC(=O)c7c(Cl)cccc7Cl)C6)CC5)CC4)cc3C2=O)C(=O)N1` [Compound 397, 2,6-dichloro-N-((1s,3s)-3-(6-((2-(1-((1-(2-(2,6-dioxopiperidin-3-yl)-6-fluoro-1,3-dioxoisoindolin-5-yl)piperidin-4-yl)methyl)piperidin-4-yl)ethyl)amino)-9H-purin-9-yl)cyclobutyl)benzamide], the “Enzyme degradation CDK9 (% remaining) @ 0.1 μM” value (CDK9) is reported as 70%, the “Enzyme degradation CDK9 (% remaining) @ 1 μM” value (CDK9) is reported as 10% and the “Enzyme degradation CDK9 (% remaining) @ 10 μM” value (CDK9) is reported as 10%. For the same molecule, the “Enzyme degradation CDK2 (% remaining) @ 0.1 μM” value (CDK2) was 50%, the “Enzyme degradation CDK2 (% remaining) @ 1 μM” value (CDK2) was 30% and the “Enzyme degradation CDK2 (% remaining) @ 10 μM” value (CDK2) was 30%.
In the case of `O=C1CC[C@H](N2C(=O)c3cccc(N4CCN(CCCN5CCN(c6ccc(Nc7ncnc8c7ncn8C7CC(NC(=O)Cc8ccccc8)C7)cc6)CC5)CC4)c3C2=O)C(=O)N1` (stereo partly drawn) [Compound 238, N-((1s,3s)-3-(6-((4-(4-(3-(4-(2-(2,6-dioxopiperidin-3-yl)-1,3-dioxoisoindolin-4-yl)piperazin-1-yl)propyl)piperazin-1-yl)phenyl)amino)-9H-purin-9-yl)cyclobutyl)-2-phenylacetamide], the “Enzyme degradation CDK9 (% remaining) @ 0.1 μM” value (CDK9) is reported as 70%, the “Enzyme degradation CDK9 (% remaining) @ 1 μM” value (CDK9) is reported as 20% and the “Enzyme degradation CDK9 (% remaining) @ 10 μM” value (CDK9) is reported as 0%. For the same molecule, the “Enzyme degradation CDK2 (% remaining) @ 0.1 μM” value (CDK2) was 100%, the “Enzyme degradation CDK2 (% remaining) @ 1 μM” value (CDK2) was 80% and the “Enzyme degradation CDK2 (% remaining) @ 10 μM” value (CDK2) was 50%.
In the case of `O=C1CC[C@H](N2C(=O)c3ccc(N4CC(N5CCC6(CC5)CC(N5CCN(c7ccc(Nc8ncnc9c8ncn9C8CC(NC(=O)Cc9ccccc9)C8)cc7)CC5)C6)C4)cc3C2=O)C(=O)N1` (stereo partly drawn) [Compound 271, N-((1s,3s)-3-(6-((4-(4-(7-(1-(2-(2,6-dioxopiperidin-3-yl)-1,3-dioxoisoindolin-5-yl)azetidin-3-yl)-7-azaspiro[3.5]nonan-2-yl)piperazin-1-yl)phenyl)amino)-9H-purin-9-yl)cyclobutyl)-2-phenylacetamide], the “Enzyme degradation CDK9 (% remaining) @ 0.1 μM” value (CDK9) is reported as 20%, the “Enzyme degradation CDK9 (% remaining) @ 1 μM” value (CDK9) is reported as 10% and the “Enzyme degradation CDK9 (% remaining) @ 10 μM” value (CDK9) is reported as 10%. For the same molecule, the “Enzyme degradation CDK2 (% remaining) @ 0.1 μM” value (CDK2) was 30%, the “Enzyme degradation CDK2 (% remaining) @ 1 μM” value (CDK2) was 40% and the “Enzyme degradation CDK2 (% remaining) @ 10 μM” value (CDK2) was 40%.
`Cc1cccc(C(=O)NC2CC(n3cnc4c(NCc5ccc(N6CCN(CC7CCN(C(=O)CNc8cccc9c8C(=O)N([C@H]8CCC(=O)NC8=O)C9=O)CC7)CC6)cc5)ncnc43)C2)n1` (stereo partly drawn) [Compound 152, N-((1s,3s)-3-(6-((4-(4-((1-((2-(2,6-dioxopiperidin-3-yl)-1,3-dioxoisoindolin-4-yl)glycyl)piperidin-4-yl)methyl)piperazin-1-yl)benzyl)amino)-9H-purin-9-yl)cyclobutyl)-6-methylpicolinamide] was tested, and the “Enzyme degradation CDK9 (% remaining) @ 0.1 μM” value (CDK9) was 0/0/0%, the “Enzyme degradation CDK9 (% remaining) @ 1 μM” value (CDK9) was 0/0/0% and the “Enzyme degradation CDK9 (% remaining) @ 10 μM” value (CDK9) was 0/0/0%. The “Enzyme degradation CDK2 (% remaining) @ 0.1 μM” value (CDK2) was 10/10/10%, the “Enzyme degradation CDK2 (% remaining) @ 1 μM” value (CDK2) was 10/10/10% and the “Enzyme degradation CDK2 (% remaining) @ 10 μM” value (CDK2) was 10/10/10%.

Reference: patent US20260125382A1, “COMPOUNDS FOR INHIBITING OR DEGRADING CDK2 AND/OR CDK9 AND MEDICINAL USE THEREOF” (KOREA RESEARCH INSTITUTE OF CHEMICAL TECHNOLOGY, priority 2022, published 2026)
